Laboratory results from patent US20090325287A1, “Methods for Obtaining High Viable Cell Density in Mammalian Cell Culture” (priority 2008, published 2009).

Assays:
caspase 3/7 = assay: Caspase 3/7 activity assay (APO-ONE) after staurosporine treatment; format: cell-based, Chinese Hamster; conditions: staurosporine 2 μM, 16 h
Experimental: About 3×10^5 cells of each clone were seeded in one ml of growth medium in a 24-well plate. On day 4 (d4) post seeding, about 1×10^5 cells were transferred in triplicate to a 96 well plate. Staurosprine (2 μM fc) was added and the cells were incubated for 16 h before assaying for caspase3/7 activity by APO-ONE kit (BD Labs). The procedure was repeated on d10, except that Staurosporine was omitted. […] The apoptotic^R nature of the selected clones was confirmed by flow cytometry analysis (see below) and in some instances, by measuring the mitochondrial membrane potential.
Each apoptotic^R cell line was examined for caspase 3/7 activity by APO-ONE as this activity provides an indication of the degree of resistance of a cell line to apoptosis. Briefly, in this assay, the profluorescent substrate Z-DEVD-R110 is cleaved by caspase 3/7 in a dose-dependent manner. Exponential cultures of EA167 and EAX197 as well as the control cell line were treated with staurosporine for 16 hours to induce apoptosis, following which caspase 3/7 was measured. The caspase 3/7 activity in staurosporine treated control cells was arbitrarily set at 100%. […] As further evidence of the apoptotic^R nature of EA167 and EAX197, staurosporine-treated cultures of these two cell lines and the control cell line, were labeled with FITC-conjugated anti-caspase 3 antibody followed by analysis by flow cytometry. […]

caspase 3 = assay: Flow cytometry with FITC-labeled anti-caspase 3 antibody after staurosporine treatment; format: cell-based, Chinese Hamster; conditions: staurosporine 2 μM, 16 h
Experimental: About 1×10^6 cells from exponential cultures were withdrawn from each shake flask into 24 well plates, incubated with Staurosporine (2 μM fc) for 16 h, harvested and washed once in PBS. The cells were then incubated with CytoPerm (Cat. No. 2075KK, BD BioScience) to fix and permeablized them. Following a PBS wash, cells were incubated with FITC-labeled anti-caspase3 (Cat. No. 68654, BD BioScience) antibody before subjecting them to analysis by flow cytometry.
Each apoptotic^R cell line was examined for caspase 3/7 activity by APO-ONE as this activity provides an indication of the degree of resistance of a cell line to apoptosis. Briefly, in this assay, the profluorescent substrate Z-DEVD-R110 is cleaved by caspase 3/7 in a dose-dependent manner. Exponential cultures of EA167 and EAX197 as well as the control cell line were treated with staurosporine for 16 hours to induce apoptosis, following which caspase 3/7 was measured. The caspase 3/7 activity in staurosporine treated control cells was arbitrarily set at 100%. […] As further evidence of the apoptotic^R nature of EA167 and EAX197, staurosporine-treated cultures of these two cell lines and the control cell line, were labeled with FITC-conjugated anti-caspase 3 antibody followed by analysis by flow cytometry. […] However, 91% of the control cell population was positive for caspase 3 following staurosporine treatment. In contrast, only 9% of the population derived from cell line EAX197 and 30% of that derived from cell line EA167 were positive for caspase 3, confirming the apoptotic^R phenotype of these two cell lines.

For `CN[C@@H]1C[C@H]2O[C@@](C)([C@@H]1OC)n1c3ccccc3c3c4c(c5c6ccccc6n2c5c31)C(=O)NC4` [staurosporine], the “caspase 3/7 activity, of staurosporine treated control cells (set at 100%)” value (caspase 3/7; EA167 cells (CHOK1SV expressing E1B-19K + Aven)) was 30%, the “caspase 3/7 activity, of staurosporine treated control cells (set at 100%)” value (caspase 3/7; EAX197 cells (CHOK1SV expressing E1B-19K + Aven + XIAPΔ)) was 35% and the “cell population positive for caspase 3” value (caspase 3; EA167 cells) was 30%. For the same molecule, the “cell population positive for caspase 3” value (caspase 3; EAX197 cells) was 9% and the “cell population positive for caspase 3” value (caspase 3; control cell line (CHOK1SV, C1013A)) was 91%.
